# Values joined by “and” are separate entries in the source; they are usually repeats but may differ in a detail not shown here. Equal entries are not always repeated. Where two headings read alike, the source gives them in different places.
# Key:
# [1] = target: T1, xanthine oxidase (XO) (Bos taurus, UniProt P80457); assay: XO assay with xanthine as substrate (uric acid formation, HPLC-UV); type: biochemical, bovine; conditions: for IC50: XO 0.0003 U mL^−1, 8 min, 37 °C, pH 7.5, read-out: IC50, xanthine oxidation; for inhibition at 20 µM / decrease in uric acid production (inhibition of XO-catalyzed xanthine oxidation): inhibitor 20 μmol L^−1; for inhibition at 20 µM: read-out: decrease in uric acid production (inhibition of XO-catalyzed xanthine oxidation); for α = IC50 of flavonoid/IC50 of positive control, xanthine oxidation: relative to APU;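 as to all read-outs here: incubations in 0.05 mol L^−1 sodium phosphate buffer, with uric acid and remaining xanthine both quantified by HPLC-UV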
# T1 construct: XO (from bovine milk); purchased Merck (Darmstadt, Germany); host or cells: bovine milk (natural source)
# T1 sequence (P80457 whole entry): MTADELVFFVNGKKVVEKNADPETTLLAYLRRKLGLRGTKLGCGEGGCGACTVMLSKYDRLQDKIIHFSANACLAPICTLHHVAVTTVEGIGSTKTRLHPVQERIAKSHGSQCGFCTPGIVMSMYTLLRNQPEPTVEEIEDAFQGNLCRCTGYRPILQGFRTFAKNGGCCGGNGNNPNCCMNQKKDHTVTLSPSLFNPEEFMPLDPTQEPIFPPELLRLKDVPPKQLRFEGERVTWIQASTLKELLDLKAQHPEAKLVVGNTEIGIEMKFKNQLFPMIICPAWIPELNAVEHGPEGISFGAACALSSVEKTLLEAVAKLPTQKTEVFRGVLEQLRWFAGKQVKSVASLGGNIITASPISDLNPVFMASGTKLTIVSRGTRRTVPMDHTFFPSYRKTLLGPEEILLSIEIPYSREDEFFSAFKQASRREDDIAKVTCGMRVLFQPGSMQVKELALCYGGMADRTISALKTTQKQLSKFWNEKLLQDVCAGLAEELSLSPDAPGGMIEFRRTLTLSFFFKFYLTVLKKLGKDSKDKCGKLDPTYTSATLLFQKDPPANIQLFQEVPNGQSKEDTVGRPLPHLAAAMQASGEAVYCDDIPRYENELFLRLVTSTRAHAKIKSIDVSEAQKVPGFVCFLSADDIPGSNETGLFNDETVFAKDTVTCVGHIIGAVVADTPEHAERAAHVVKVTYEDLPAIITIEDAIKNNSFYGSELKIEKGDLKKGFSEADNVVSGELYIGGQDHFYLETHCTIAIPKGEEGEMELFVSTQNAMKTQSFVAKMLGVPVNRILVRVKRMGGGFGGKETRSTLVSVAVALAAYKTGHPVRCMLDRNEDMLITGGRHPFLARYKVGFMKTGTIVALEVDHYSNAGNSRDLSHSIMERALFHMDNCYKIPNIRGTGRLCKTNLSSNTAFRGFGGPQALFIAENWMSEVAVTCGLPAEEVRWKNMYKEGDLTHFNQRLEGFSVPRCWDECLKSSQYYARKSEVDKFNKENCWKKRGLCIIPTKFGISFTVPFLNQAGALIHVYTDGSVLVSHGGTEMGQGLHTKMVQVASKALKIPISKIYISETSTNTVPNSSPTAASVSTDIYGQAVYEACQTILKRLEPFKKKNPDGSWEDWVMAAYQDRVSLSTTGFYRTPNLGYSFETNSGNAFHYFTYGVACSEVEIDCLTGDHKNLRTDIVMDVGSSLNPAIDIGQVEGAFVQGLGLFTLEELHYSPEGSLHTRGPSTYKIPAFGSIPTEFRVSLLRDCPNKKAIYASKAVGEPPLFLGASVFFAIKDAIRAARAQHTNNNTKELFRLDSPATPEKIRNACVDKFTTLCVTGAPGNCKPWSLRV
# [2] = target: T1, xanthine oxidase (XO); assay: XO assay with 6MP as substrate (6-thiouric acid formation, HPLC-UV); type: biochemical, bovine; conditions: for IC50: XO 0.01 U mL^−1, 25 min, 37 °C, pH 7.5, read-out: IC50, 6MP oxidation; for IC50(6MP)/IC50(xanthine): ratio of IC50 values with the two substrates; for α = IC50 of flavonoid/IC50 of positive control, 6MP oxidation: relative to APU; for lower decrease in metabolite formation in the 6MP assay than in the xanthine assay: difference between assays;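 as to all read-outs here: incubation in 0.05 mol L^−1 sodium phosphate buffer, with 6MP and 6-thiouric acid quantified by HPLC-UV and conversion taken as the product share of substrate plus product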
# [3] = target: T1, xanthine oxidase (XO); assay: Reversibility of XO inhibition (preincubation, increasing xanthine concentrations); type: biochemical, bovine; conditions: SBS 5 μmol L^−1, DSC and DSCS 0.5 μmol L^−1; 10 min preincubation; xanthine 5, 25, 50 μmol L^−1
# Method: After 8 min incubation (700 rpm, 37 °C), the reaction was stopped, and the samples were treated in the same way as described in the previous paragraph.
# [4] = target: T1, xanthine oxidase (XO); assay: Fluorescence quenching studies of polyphenol-XO complexes; type: binding, bovine; conditions: for Log K SV ± SEM (Stern–Volmer quenching constant): K SV in L mol^−1
# Method: Increasing concentrations of polyphenols (0, 2, 4, 6, 8 and 10 μmol L^−1) were added to a standard amount of XO (0.4 μmol L^−1) in sodium phosphate buffer (0.05 mol L^−1, pH 7.5). Then, the emission spectra of XO were recorded using 280 nm excitation wavelength. The inner‐filter effects of silymarin components/metabolites were corrected based on the following equation[39], [41], [42]: (1) Icor=Iobs×e^Aex+Aem/2 where I cor is the corrected and I obs is the observed emission intensity; while A ex and A em are the absorbance of polyphenols at the excitation and emission wavelengths applied, respectively. Polyphenol‐induced fluorescence quenching was evaluated at 335 nm. Stern–Volmer quenching constants (K SV; unit: L mol^−1) of polyphenol–XO complexes were determined using the graphical application of the Stern–Volmer equation[43], [44], [45]: (2) I0/I=1+KSV×Q where I 0 and I are the emission signals of XO without and with the polyphenols tested, respectively, and [Q] denotes the molar concentration (mol L^−1) of the quencher (polyphenols). The binding constants (K; unit: L mol^−1) of polyphenol–XO complexes were calculated applying the modified Stern–Volmer equation[43], [44], [45]: (3) I0/I0−I=1/fa×K×1/Q+1/fa where I 0, I and [Q] have the same meaning as in Eqn (2), and f a is the fraction of the accessible fluorophore.
# [5] = inhibitor 20 μmol L^−1, 6MP 5 μmol L^−1
# [6] = λex 280 nm, λem 335 nm, XO 0.4 μmol L^−1, pH 7.5
# [7] = association constant K in L mol^−1, λex 280 nm, λem 335 nm, XO 0.4 μmol L^−1, pH 7.5, read-out: Log K ± SEM (binding constant, modified Stern–Volmer) (converted)
# [8] = association constant K in L mol^−1, λex 280 nm, λem 335 nm, XO 0.4 μmol L^−1, pH 7.5
molecule,measurement,setting,value
"COc1cc([C@@H]2Oc3c(O)cc(-c4oc5cc(O)cc(O)c5c(=O)c4O)cc3[C@H]2CO)ccc1O [DSC, 3,5,7‐trihydroxy‐2‐[(2R,3S)‐7‐hydroxy‐2‐(4‐hydroxy‐3‐methoxyphenyl)‐3‐(hydroxymethyl)‐2,3‐dihydro‐1‐benzofuran‐5‐yl]chromen‐4‐one]",IC50,[1]; xanthine 5 μmol L^−1,0.09 µM
same,fold stronger inhibitor of xanthine oxidation compared to SC,[1]; based on IC50 values,50 fold
same,XO-catalyzed uric acid formation,"[1]; inhibitor 5 μmol L^−1, xanthine 5 μmol L^−1",almost completely abolished
same,inhibition at 20 µM,[1]; xanthine 5 μmol L^−1,96%
same,"α = IC50 of flavonoid/IC50 of positive control, xanthine oxidation",[1],0.35
same,IC50,[2]; 6MP 5 μmol L^−1,0.29 µM
same,"fold stronger inhibition than APU, 6MP assay",[2]; based on IC50 values,~15 fold
same,XO-catalyzed 6-thiouric acid formation,"[2]; inhibitor 5 μmol L^−1, 6MP 5 μmol L^−1",almost completely abolished
same,decrease in 6-thiouric acid formation (inhibition of XO-catalyzed 6MP oxidation),[2]; [5],marked decreases
same,inhibition at 20 µM,"[2]; inhibitor 20 μmol L^−1, 6MP 5 μmol L^−1, read-out: decrease in 6-thiouric acid formation (inhibition of XO-catalyzed 6MP oxidation)",> 80%
same,IC50(6MP)/IC50(xanthine),[2],3.2
same,"α = IC50 of flavonoid/IC50 of positive control, 6MP oxidation",[2],0.07
same,reversibility of the inhibitory action on XO,[3],reversible
same,Log K SV ± SEM (Stern–Volmer quenching constant),[4]; [6],4.68 ± 0.01
same,Kd,[4]; [7],7.76 µM
same,Kd,"[4]; fluorescence quenching, read-out: K (binding constant) of polyphenol–XO complex",< 10 µM
"Oc1cc(O)c2c(c1)OC(c1ccc(O)c(O)c1)C(O)C2 (stereo not shown) [CAT, catechin]",decrease in uric acid production (inhibition of XO-catalyzed xanthine oxidation),[1]; xanthine 5 μmol L^−1,did not cause significant changes
"O=C(O[C@@H]1Cc2c(O)cc(O)cc2O[C@@H]1c1cc(O)c(O)c(O)c1)c1cc(O)c(O)c(O)c1 [EGCG, epigallocatechin gallate]",decrease in uric acid production (inhibition of XO-catalyzed xanthine oxidation),[1]; xanthine 5 μmol L^−1,approximately 50%
same,decrease in 6-thiouric acid formation (inhibition of XO-catalyzed 6MP oxidation),[2]; [5],weak to moderate inhibitors
"Oc1cc(O)c2c(c1)O[C@H](c1ccc(O)c(O)c1)[C@H](O)C2 [ECT, epicatechin]",decrease in uric acid production (inhibition of XO-catalyzed xanthine oxidation),[1]; xanthine 5 μmol L^−1,did not cause significant changes
"O=C(O[C@@H]1Cc2c(O)cc(O)cc2O[C@@H]1c1ccc(O)c(O)c1)c1cc(O)c(O)c(O)c1 [ECG, epicatechin gallate]",inhibition at 20 µM,[1]; xanthine 5 μmol L^−1,~50%
same,decrease in 6-thiouric acid formation (inhibition of XO-catalyzed 6MP oxidation),[2]; [5],weak to moderate inhibitors
"COc1cc(C2Oc3c(O)cc(C4Oc5cc(O)cc(O)c5C(=O)C4O)cc3C2CO)ccc1OS(=O)(=O)O (mixture of isomers) [SCS, silychristin‐19‐O‐sulfate]",decrease in uric acid production (inhibition of XO-catalyzed xanthine oxidation),[1]; xanthine 5 μmol L^−1,weaker effect compared to its parent compound
same,decrease in 6-thiouric acid formation (inhibition of XO-catalyzed 6MP oxidation),[2]; [5],weak to moderate inhibitors
same,lower decrease in metabolite formation in the 6MP assay than in the xanthine assay,[2]; inhibitor 20 μmol L^−1,~20%
same,Log K SV ± SEM (Stern–Volmer quenching constant),[4]; [6],4.37 ± 0.03
same,"Log K ± SEM (binding constant, modified Stern–Volmer)",[4]; [8],4.66 ± 0.02
"COc1cc([C@@H]2Oc3c(O)cc([C@H]4Oc5cc(O)cc(O)c5C(=O)[C@@H]4O)cc3[C@H]2CO)ccc1O [SC, silychristin]",IC50,[1]; xanthine 5 μmol L^−1,4.5 µM
same,"α = IC50 of flavonoid/IC50 of positive control, xanthine oxidation",[1],17.3
same,IC50,[2]; 6MP 5 μmol L^−1,10 µM
same,IC50(6MP)/IC50(xanthine),[2],2.2
same,"α = IC50 of flavonoid/IC50 of positive control, 6MP oxidation",[2],2.38
same,Log K SV ± SEM (Stern–Volmer quenching constant),[4]; [6],4.43 ± 0.01
same,"Log K ± SEM (binding constant, modified Stern–Volmer)",[4]; [8],4.81 ± 0.01
"COc1cc([C@H]2Oc3ccc([C@H]4Oc5cc(O)cc(O)c5C(=O)[C@@H]4O)cc3O[C@@H]2CO)ccc1O [ISA, isosilybin A]",inhibition at 20 µM,[1]; xanthine 5 μmol L^−1,64%
same,decrease in 6-thiouric acid formation (inhibition of XO-catalyzed 6MP oxidation),[2]; [5],weak to moderate inhibitors
same,lower decrease in metabolite formation in the 6MP assay than in the xanthine assay,[2]; inhibitor 20 μmol L^−1,~20%
same,Log K SV ± SEM (Stern–Volmer quenching constant),[4]; [6],4.46 ± 0.01
same,Kd,[4]; [7],18.2 µM
"COc1cc([C@@H]2Oc3cc([C@H]4Oc5cc(O)cc(O)c5C(=O)[C@@H]4O)ccc3O[C@H]2CO)ccc1O [SB, (2R,3R)‐3,5,7‐trihydroxy‐2‐[(2S,3S)‐3‐(4‐hydroxy‐3‐methoxyphenyl)‐2‐(hydroxymethyl)‐2,3‐dihydro‐1,4‐benzodioxin‐6‐yl]‐2,3‐dihydrochromen‐4‐one]",decrease in uric acid production (inhibition of XO-catalyzed xanthine oxidation),[1]; xanthine 5 μmol L^−1,only weak inhibitors
same,decrease in 6-thiouric acid formation (inhibition of XO-catalyzed 6MP oxidation),[2]; [5],weak to moderate inhibitors
same,Log K SV ± SEM (Stern–Volmer quenching constant),[4]; [6],4.49 ± 0.01
same,Kd,[4]; [7],13.5 µM
isosilybin A‐20‐O‐sulfate [ISAS],IC50,[1]; xanthine 5 μmol L^−1,0.68 µM
same,decrease in uric acid production (inhibition of XO-catalyzed xanthine oxidation),[1]; xanthine 5 μmol L^−1,more than 80%
same,"α = IC50 of flavonoid/IC50 of positive control, xanthine oxidation",[1],2.62
same,IC50,[2]; 6MP 5 μmol L^−1,2.86 µM
same,IC50(6MP)/IC50(xanthine),[2],4.2
same,"α = IC50 of flavonoid/IC50 of positive control, 6MP oxidation",[2],0.68
same,Log K SV ± SEM (Stern–Volmer quenching constant),[4]; [6],4.49 ± 0.01
same,"Log K ± SEM (binding constant, modified Stern–Volmer)",[4]; [8],4.90 ± 0.04
"Oc1cc(O)c2c(c1)O[C@H](c1cc(O)c(O)c(O)c1)[C@H](O)C2 [EGC, epigallocatechin]",decrease in uric acid production (inhibition of XO-catalyzed xanthine oxidation),[1]; xanthine 5 μmol L^−1,did not cause significant changes
same,decrease in 6-thiouric acid formation (inhibition of XO-catalyzed 6MP oxidation),[2]; [5],only slight inhibitory action
"COc1cc([C@H]2Oc3cc([C@H]4Oc5cc(O)cc(O)c5C(=O)[C@@H]4O)ccc3O[C@@H]2CO)ccc1O [SA, silybin A]",decrease in uric acid production (inhibition of XO-catalyzed xanthine oxidation),[1]; xanthine 5 μmol L^−1,only weak inhibitors
same,decrease in 6-thiouric acid formation (inhibition of XO-catalyzed 6MP oxidation),[2]; [5],weak to moderate inhibitors
same,Log K SV ± SEM (Stern–Volmer quenching constant),[4]; [6],4.45 ± 0.04
same,Kd,[4]; [7],19.5 µM
"Oc1ncnc2[nH]ncc12 [APU, allopurinol, reference compound]",decrease in uric acid production (inhibition of XO-catalyzed xanthine oxidation),[1]; xanthine 5 μmol L^−1,almost completely abolished metabolite formation
same,decrease in 6-thiouric acid formation (inhibition of XO-catalyzed 6MP oxidation),[2]; [5],marked decreases
"COc1cc([C@H]2Oc3cc([C@H]4Oc5cc(O)cc(O)c5C(=O)[C@@H]4O)ccc3O[C@@H]2CO)ccc1OS(=O)(=O)O [SAS, silybin A‐20‐O‐sulfate]",IC50,[1]; xanthine 5 μmol L^−1,1.4 µM and 1.43 µM
same,decrease in uric acid production (inhibition of XO-catalyzed xanthine oxidation),[1]; xanthine 5 μmol L^−1,more than 80%
same,"α = IC50 of flavonoid/IC50 of positive control, xanthine oxidation",[1],5.50
same,IC50,[2]; 6MP 5 μmol L^−1,2.91 µM
same,IC50(6MP)/IC50(xanthine),[2],2.0
same,"α = IC50 of flavonoid/IC50 of positive control, 6MP oxidation",[2],0.69
same,Log K SV ± SEM (Stern–Volmer quenching constant),[4]; [6],4.58 ± 0.03
same,"Log K ± SEM (binding constant, modified Stern–Volmer)",[4]; [8],4.99 ± 0.05
